Test [1] deals with T1, Sodium-dependent dopamine transporter (Homo sapiens, UniProt Q01959). Put plainly: The compound was tested in vitro for high binding affinity for the Dopamine transporter (DAT) using competitive binding assay.
Test [2] addresses T1, Sodium-dependent dopamine transporter. Put plainly: The compound was tested in vitro for low binding affinity for the Dopamine transporter (DAT) using competitive binding assay.
The target in test [3] is Sodium-dependent noradrenaline transporter (Homo sapiens, UniProt P23975). Put plainly: The compound was tested in vitro for binding affinity for the norepinephrine transporter (NET) using competitive binding assay.
Chain of Sodium-dependent noradrenaline transporter (P23975 whole entry): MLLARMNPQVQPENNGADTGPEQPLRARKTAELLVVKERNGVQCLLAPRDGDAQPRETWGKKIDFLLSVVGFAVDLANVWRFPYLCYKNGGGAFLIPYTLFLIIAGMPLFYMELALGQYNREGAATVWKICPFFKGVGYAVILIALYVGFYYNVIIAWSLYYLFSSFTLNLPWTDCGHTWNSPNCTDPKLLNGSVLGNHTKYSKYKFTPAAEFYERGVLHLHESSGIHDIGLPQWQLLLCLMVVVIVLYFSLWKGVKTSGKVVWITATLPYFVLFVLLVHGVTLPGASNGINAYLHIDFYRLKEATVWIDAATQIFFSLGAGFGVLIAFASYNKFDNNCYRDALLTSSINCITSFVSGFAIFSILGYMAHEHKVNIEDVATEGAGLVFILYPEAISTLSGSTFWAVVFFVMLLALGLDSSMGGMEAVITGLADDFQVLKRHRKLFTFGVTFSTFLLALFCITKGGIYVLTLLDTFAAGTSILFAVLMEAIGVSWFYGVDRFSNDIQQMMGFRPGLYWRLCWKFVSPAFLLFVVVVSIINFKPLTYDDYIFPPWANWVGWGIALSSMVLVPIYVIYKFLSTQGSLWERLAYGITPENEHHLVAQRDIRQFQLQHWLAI
In test [4] the target is Sodium-dependent serotonin transporter (Homo sapiens, UniProt P31645). Put plainly: The compound was tested in vitro for binding affinity for the serotonin transporter (5-HTT) using competitive binding assay.
Chain of Sodium-dependent serotonin transporter (P31645 whole entry): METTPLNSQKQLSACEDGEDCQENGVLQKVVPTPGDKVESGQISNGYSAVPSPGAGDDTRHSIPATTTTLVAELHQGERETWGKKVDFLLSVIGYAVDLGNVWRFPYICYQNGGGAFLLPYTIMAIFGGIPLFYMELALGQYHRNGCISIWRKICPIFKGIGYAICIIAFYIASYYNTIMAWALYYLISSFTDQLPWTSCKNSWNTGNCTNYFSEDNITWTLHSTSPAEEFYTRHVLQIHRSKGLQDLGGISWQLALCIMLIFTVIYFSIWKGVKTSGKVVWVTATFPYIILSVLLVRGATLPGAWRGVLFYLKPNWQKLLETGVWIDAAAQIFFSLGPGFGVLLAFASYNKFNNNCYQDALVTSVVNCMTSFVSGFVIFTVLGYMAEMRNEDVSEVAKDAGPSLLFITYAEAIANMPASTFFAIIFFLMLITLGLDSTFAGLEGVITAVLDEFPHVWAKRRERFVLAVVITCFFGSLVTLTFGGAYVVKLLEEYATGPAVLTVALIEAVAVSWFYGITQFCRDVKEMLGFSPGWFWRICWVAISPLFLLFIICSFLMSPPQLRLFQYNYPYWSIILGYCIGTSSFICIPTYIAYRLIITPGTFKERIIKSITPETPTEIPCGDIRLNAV

SMILES strings stand for the structures.

As a reminder, the IC50 is the midpoint of a concentration-inhibition curve. A high value points to lower potency.

T1 sequence (Q01959 whole entry): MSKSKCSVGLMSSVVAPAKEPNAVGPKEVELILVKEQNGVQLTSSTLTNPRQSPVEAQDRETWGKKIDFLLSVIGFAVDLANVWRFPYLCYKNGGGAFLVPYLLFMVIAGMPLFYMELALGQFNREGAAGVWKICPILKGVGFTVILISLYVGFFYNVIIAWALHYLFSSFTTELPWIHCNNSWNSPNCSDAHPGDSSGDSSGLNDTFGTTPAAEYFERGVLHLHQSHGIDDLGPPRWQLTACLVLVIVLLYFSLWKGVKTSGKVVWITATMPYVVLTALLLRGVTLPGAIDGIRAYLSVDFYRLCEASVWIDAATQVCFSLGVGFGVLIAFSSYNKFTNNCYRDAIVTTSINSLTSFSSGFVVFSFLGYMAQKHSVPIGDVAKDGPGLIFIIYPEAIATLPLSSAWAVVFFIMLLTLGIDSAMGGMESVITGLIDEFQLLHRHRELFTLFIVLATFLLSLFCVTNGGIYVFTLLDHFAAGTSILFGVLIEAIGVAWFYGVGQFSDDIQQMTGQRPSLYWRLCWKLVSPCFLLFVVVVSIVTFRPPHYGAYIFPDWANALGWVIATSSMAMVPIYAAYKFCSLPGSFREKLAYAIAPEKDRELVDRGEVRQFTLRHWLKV

Take `CSCCSCCC(=O)OC[C@@H]1C2CCC(C[C@@H]1c1ccc(F)cc1)N2C` (stereo partly specified): the IC50 in test [1] was determined as 0.227 nM; in test [2], 5.69 nM; in test [3], 16.3 nM; in test [4] it was 28.5 nM.
On to `COC(=O)[C@H]1[C@@H](c2ccc(F)cc2)C[C@H]2CC[C@H]1N2C`, for which the IC50 in test [3] turned out to be 834 nM; in test [4], 759 nM.

The record behind these values is ChEMBL document CHEMBL1131616, “TROTEC-1: a new high-affinity ligand for labeling of the dopamine transporter” (J Med Chem, 1998).
